Legend:
[1] = test system: OVCAR-8, human ovarian cancer cells with dysfunctional p53; experiment: CyQUANT cell proliferation assay, OVCAR-8; assay type: cell-based; details: OVCAR-8, 72-hour treatment
Text: (§1) In these experiments, desired number of cells were exposed to phosphaplatins of different concentrations for 72 hr. before measuring the DNA content. Because the DNA content is proportional to the number of surviving cells, the assay provides a quantitative measure of proliferating cells. The technique is described in detail in Jones et al., “Sensitive determination of cell number using the CyQUANT cell proliferation assay,” J. Immunol. Methods, vol. 254, pp. 85-98 (2001).
(§2) In TABLES 1-5, except where actual error values are given, each reported value is assumed to have an error not greater than ±15% of the reported value; and unless otherwise specified, the data were obtained from clonogenic assays.

[2] = test system: A2780, epithelial human ovarian cancer; experiment: Clonogenic assay, A2780 cells; assay type: cell-based
Method: (§3) To determine the relative activities of the phosphaplatins of formulas (I)-(VI), each stereoisomer was tested through in vitro clonogenic assays using human ovarian cancer cells, human colon cancer cells, and human head-and-neck cancer cells. […] Cells were cultured on monolayer using RPMI 1640 supplemented with 10% fetal bovine serum, 2 mM glutamine, 0.25 units/mL insulin and penicillin/streptomycin (100 units/mL) in a 37° C. incubator continuously gassed with 5% CO2. Cells were subcultured using 0.0625% trypsin in HBSS to maintain cells in exponential cell growth.
Half-maximal inhibitory concentration (IC50) values were determined using a clonogenic assay or a CyQUANT® cell proliferation assay. In the clonogenic assay, for example, 500-700 A2780 cells from a single cell suspension were plated onto 60 mm petri plates 24 hours before treatment with the platinum compounds to permit cell attachment. On the day of treatment with the platinum compounds described in the above Synthesis Examples, the medium was decanted and was replaced with the appropriate concentration of phosphaplatin compounds (from 50 nM to 75 μM) at three different time points, […] Triplicate plates were set up for each platinum compound concentration. […] These plates were returned to the 37° C. incubator for 7 days for colony formation.
as §2
(§4) In further tests, cells were treated with the platinum compounds continuously for 7 days. Colonies were fixed and stained using 2% crystal violet in 4% formaldehyde. Colonies containing more than 50 cells were scored. The number of scored colonies from the triplicate plates was averaged, and this number was divided by the number of cells plated to obtain a value for the fraction of cells forming colonies. These values for fraction of cells forming colonies then were corrected for plating efficiency by dividing the fraction by the number of cells forming colonies in plates that were not treated with platinum compounds. […] Similar data for OVCAR-10 are shown in FIG. 3, comparing (1R,2R)-pyrodach-2 (RD2), (1R,2R)-pyrodach-4 (RD4), trans-(±)-pyrodach-2 (T-D2), and trans-(±)-pyrodach-4 (T-D4).

[3] = test system: SKMEL-2, human skin melanoma cancer cells; experiment: CyQUANT cell proliferation assay, SKMEL-2; assay type: cell-based; details: SKMEL-2, 72-hour treatment
Text: as §1, §2

Ovarian tumor = Ovarian tumor inflicted SCID mice, tumor growth and log cell kill; assay type: in vivo; details: 7 mg/kg
Method: Ovarian tumor inflicted SCID mice were treated with trans-(±)-pyrodach-2 and trans-(±)-pyrodach-4 at various doses up to 40 mg/kg, and tumor growth was monitored up to six weeks or until the tumor size became so large that these animals were sacrificed. The tumor growth or regression by the phosphaplatin-treated mice was then compared with cisplatin-treated mice (7 mg/kg) and carboplatin-treated mice (60 mg/kg). Three doses of platinum compounds were administered on alternate days when the tumor grew to a size of at least 100 mm^3 size. Gross and net log cell kill values were then calculated using the formulas:
[formula] [formula] where T and C are median times in days to grow tumor to a specified size, and Td is the median time in days to double the size of the tumor in control animals.

[4] = test system: A2780/C30, epithelial human ovarian cancer resistant to 30 μM cisplatin and 100 μM carboplatin; experiment: Clonogenic assay, A2780/C30 cells; assay type: cell-based; details: A2780/C30, 1 hour treatment
Method: as §3
Half-maximal inhibitory concentration (IC50) values were determined using a clonogenic assay or a CyQUANT® cell proliferation assay. In the clonogenic assay, for example, 500-700 A2780 cells from a single cell suspension were plated onto 60 mm petri plates 24 hours before treatment with the platinum compounds to permit cell attachment. On the day of treatment with the platinum compounds described in the above Synthesis Examples, the medium was decanted and was replaced with the appropriate concentration of phosphaplatin compounds (from 50 nM to 75 μM) at three different time points, […] Triplicate plates were set up for each platinum compound concentration. After the 24-hour treatment, the medium containing the platinum compounds was decanted and was replaced with fresh medium. These plates were returned to the 37° C. incubator for 7 days for colony formation.
as §2, §4

[5] = test system: OVCAR-10, human ovarian cancer resistant to cisplatin treatment; experiment: CyQUANT cell proliferation assay, OVCAR-10; assay type: cell-based; details: OVCAR-10, 72-hour treatment
Text: as §1, §2

[6] = test system: OVCAR-10, human ovarian cancer resistant to cisplatin treatment; experiment: Clonogenic assay, OVCAR-10 cells; assay type: cell-based; details: OVCAR-10, 24 hours treatment
Method: as §3
Half-maximal inhibitory concentration (IC50) values were determined using a clonogenic assay or a CyQUANT® cell proliferation assay. In the clonogenic assay, for example, 500-700 A2780 cells from a single cell suspension were plated onto 60 mm petri plates 24 hours before treatment with the platinum compounds to permit cell attachment. On the day of treatment with the platinum compounds described in the above Synthesis Examples, the medium was decanted and was replaced with the appropriate concentration of phosphaplatin compounds (from 50 nM to 75 μM) at three different time points, and the treated cells were placed back into the 37° C. incubator for 24 hours. Triplicate plates were set up for each platinum compound concentration. After the 24-hour treatment, the medium containing the platinum compounds was decanted and was replaced with fresh medium. These plates were returned to the 37° C. incubator for 7 days for colony formation.
as §2, §4

[7] = test system: MCF-7, human breast cancer cells; experiment: CyQUANT cell proliferation assay, MCF-7; assay type: cell-based; details: MCF-7, 72-hour treatment
Text: as §1, §2

[8] = test system: PC-3, human metastatic prostate cancer cells; experiment: CyQUANT cell proliferation assay, PC-3; assay type: cell-based; details: PC-3, 72-hour treatment
Text: as §1, §2

[9] = test system: U251, human glioblastoma cancer cells; experiment: CyQUANT cell proliferation assay, U251; assay type: cell-based; details: U251, 72-hour treatment
Text: as §1, §2

[10] = test system: human colon cancer cell lines (HT-29); experiment: CyQUANT cell proliferation assay, HT-29; assay type: cell-based; details: HT-29, 72 hours
Text: as §1, §2

[11] = test system: A549, human lung adenocarcinoma cancer cells; experiment: CyQUANT cell proliferation assay, A549; assay type: cell-based; details: A549, 72-hour treatment
Text: as §1, §2

**Q.** With N.N.[Cl][Pt][Cl] [cisplatin] as the compound, how does the IC50 [1] read?
**A.** 6.3 µM

**Q.** And the IC50 ([2]; A2780, 1 hour treatment)?
**A.** 7 µM

**Q.** What about the IC50 ([2]; A2780, 24 hours treatment) of the same compound?
**A.** 5 µM

**Q.** And the IC50 [3]?
**A.** 5.34 µM

**Q.** What about the “time to death of treated mice” value (Ovarian tumor) of the same compound?
**A.** ≤ 7 days

**Q.** And the tumor response (Ovarian tumor)?
**A.** tumor regression

**Q.** And the IC50 [4]?
**A.** 100 µM

**Q.** And the IC50 [5]?
**A.** 3.1 µM

**Q.** What about the IC50 [6] of the same compound?
**A.** 4.1 µM

**Q.** What about the IC50 [7] of the same compound?
**A.** 5.1 µM

**Q.** What about the IC50 [8] of the same compound?
**A.** 1.08 µM

**Q.** And the IC50 [9]?
**A.** 0.75 µM

**Q.** And the IC50 [10]?
**A.** 6.5 µM

**Q.** What about the IC50 [11] of the same compound?
**A.** 2.8 µM
